How the values were obtained:
[1] = Compound was tested for antagonism of Prostaglandin E2 receptor activity in guinea pig ileum assay based on the dose ratio at 3 uM; conditions: read-out: pA2 (converted)
Mus musculus = assay: Compound was tested for analgesic activity in the mouse writhing assay at intragastric dose of 30 mg/Kg; type: functional; conditions: po

O=C(CCS(=O)(=O)Cc1ccco1)NNC(=O)N1Cc2ccccc2Oc2ccc(Cl)cc21
Kb [1]: 251 nM
ED50 (Mus musculus): 5 mg/kg

O=C(CCSCc1ccco1)NNC(=O)N1Cc2ccccc2Oc2ccc(Cl)cc21
ED50 (Mus musculus): 0.9 mg/kg

O=C(CC[S+]([O-])Cc1ccco1)NNC(=O)N1Cc2ccccc2Oc2ccc(Cl)cc21 (configuration not stated)
Kb [1]: 631 nM
ED50 (Mus musculus): 5 mg/kg

O=C(CCCCCl)NNC(=O)N1Cc2ccccc2Oc2ccc(Cl)cc21 [PINADOLINE]
Kb [1]: 631 nM
ED50 (Mus musculus): 9.8 mg/kg
